Reference: publication PMC8034656 (2021)

Test system: single oligonucleotide with a low probability of self-hybridization (ssDNA) (DNA, single strand) GAACAACGCTCCAACCATCGC
Test: absorption and fluorescence titration
Settings: 3 µM DOX; absorption changes, fluorescence hardly quenched

Q: Which binding does the source give for `COc1cccc2c1C(=O)c1c(O)c3c(c(O)c1C2=O)C[C@@](O)(C(=O)CO)C[C@@H]3O[C@H]1C[C@H](N)[C@H](O)[C@H](C)O1` here?
A: weak
